Measurements: publication PMC2792720, “Binding of NIR-conPK and NIR-6T to Astrocytomas and Microglial Cells: Evidence for a Protein Related to TSPO” (PLoS ONE, 2009)
Values belong to the compound of their own block, whether it stands above or below them.

Target: T1, TSPO (Mus musculus, UniProt P50637)
T1 construct: mitochondrial-enriched membranes from DBT cells were prepared by lysing cells with ice-cold homogenization buffer; endogenous in cells; host or cells: DBT mouse astrocytoma cells (mitochondrial-enriched membranes / homogenates), untreated or cytokine-treated
Experiment: Filtration radioligand binding assay, [^3H]-PK 11195 binding to DBT cell homogenates
Design: Bmax: unit not given here
Protocol: Enriched membranes were prepared according to [28]. Briefly, mitochondrial-enriched membranes from DBT cells were prepared by lysing cells with ice-cold homogenization buffer (50 mM Tris, 1 mM EDTA and 3 mM MgCl2), followed by dounce homogenization (five gentle strokes). Homogenates were centrifuged (40,000×g, 15 min, 4°C) and cell pellet resuspended in 0.5 ml homogenization buffer, re-homogenized by dounce (five gentle strokes while on ice) and centrifuged again (40,000×g, 15 min, 4°C). Cell pellets were stored at −80°C until further use. Radioligand binding assays were performed in silanized glass test tubes (Kimble Glass Inc.). The following components were added: 50 µl of non-radiolabeled DAA1106 or PK 11195, 50 µl of [N-methyl-^3H]-PK 11195 (PerkinElmer, Boston MA; 250 µCi, 84.8 Ci/mmol) and 100 µl of protein (50 µg, which started the incubation) for a total volume of 200 µl in binding buffer (50 mM Tris, 1 mM EDTA, 3 mM MgCl2 and 0.1% BSA), all of which was placed in a water bath (30°C) with mild agitation for 1 hr. Incubation was stopped by rapid filtration and rinsing with ice-cold binding buffer, using the Brandel harvester (Gaithersburg, MD) and Whatman GFB filter paper (Brandel, Gaithersburg MD). Filters were then transferred to 7 ml glass scintillation vials (VWR, West Chester PA). Five ml of Ecoscint XR scintillation fluid (National Diagnostics, Atlanta, GA) was added, followed by 10 sec vortexing and ∼18 hrs incubation at room temperature prior to determining the radioactivity with a scintillation counter (PerkinElmer, Boston MA).
Data are expressed as n = number of determinations (three per independent experiment). Statistical analysis, Kd and Ki values were calculated using non-linear regression with a one binding site hyperbola, where X is the concentration of the ligand, Y is specific binding and Bmax and Kd are determined using this equation: Y = Bmax X/Kd+X calculated by GraphPad Prism 4.

Ki (DBT cell homogenates, read-out: Ki, competition for [^3H]-PK 11195 binding): 0.2 nM
Structure (SMILES): COc1ccc(OC)c(CN(C(C)=O)c2cc(F)ccc2Oc2ccccc2)c1 [DAA1106]

Structure (SMILES): CCC(C)N(C)C(=O)c1cc2ccccc2c(-c2ccccc2Cl)n1 (centres unmarked) [PK 11195]
EC50 (DBT cell homogenates, read-out: EC50, competition for [^3H]-PK 11195 binding): 93 nM

Structure (SMILES): [3H]CN(C(=O)c1cc2ccccc2c(-c2ccccc2Cl)n1)C(C)CC (centres unmarked) [[^3H]-PK 11195, [N-methyl-^3H]-PK 11195]
amount of TSPO detected with [^3H]-PK 11195 (Bmax) (DBT cell homogenates, untreated cells): 14 pmol of TSPO per gram of protein
Bmax (homogenates of DBT cells treated with IFNγ (100 Ui/ml), 18–24 hrs): 17.0+/−2.6
Bmax (homogenates of DBT cells treated with IFNγ+TNFα, 18–24 hrs): 17.6+/−2.4
Bmax (homogenates of DBT cells treated with TGFβ2 (1 ng/ml), 18–24 hrs): 22.1+/−4.7
Bmax (homogenates of DBT cells treated with TNFα (5 ng/ml), 18–24 hrs): 17.4+/−2.9
Bmax (homogenates of DBT cells, Control (vehicle, 18–24 hrs)): 14.0+/−1.1
